Read-outs that look alike come from different tables or passages of the source.
Legend:
human glucagon receptor = biological target: T1, human glucagon receptor (Homo sapiens, UniProt P47871); experiment: Glucagon Binding Assay (II)
T1 construct: expressed in transfected cells; host or cells: BHK (baby hamster kidney) cells, membrane preparation
Outline: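 Membranes from BHK cells transfected with the human glucagon receptor were incubated with test compound (in DMSO) in HEPES buffer pH 7.5 with Ca2+/Mg2+ and WGA beads for 4 h, then settled 8–48 h before scintillation counting. Non-specific binding was defined with 500 nM glucagon.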

human GIP receptor = biological target: T2, human GIP receptor (Homo sapiens, UniProt P48546); experiment: GIP Binding Assay; details: membranes of BHK cells transfected with human GIP receptor, 125I-GIP, SPA; read-out: GIP Bd Assay IC50
T2 construct: expressed in transfected cells; host or cells: BHK (baby hamster kidney) cells, membrane preparation
T2 sequence (P48546 22-466): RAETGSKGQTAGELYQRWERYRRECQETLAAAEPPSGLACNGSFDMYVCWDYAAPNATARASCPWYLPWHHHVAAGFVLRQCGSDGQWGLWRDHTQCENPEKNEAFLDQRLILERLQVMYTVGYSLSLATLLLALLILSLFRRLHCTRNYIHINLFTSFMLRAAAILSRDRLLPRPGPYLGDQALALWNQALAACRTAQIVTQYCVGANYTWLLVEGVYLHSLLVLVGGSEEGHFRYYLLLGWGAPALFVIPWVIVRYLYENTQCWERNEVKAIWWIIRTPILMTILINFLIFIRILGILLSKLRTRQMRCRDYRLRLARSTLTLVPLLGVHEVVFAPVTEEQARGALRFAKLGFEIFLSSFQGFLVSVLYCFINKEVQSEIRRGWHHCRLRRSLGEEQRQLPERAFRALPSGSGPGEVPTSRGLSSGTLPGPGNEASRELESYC
Outline: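 Membranes from BHK cells transfected with human GIP receptor; competition binding in HEPES pH 7.5 buffer with Ca2+/Mg2+, compounds added in DMSO, WGA SPA beads. Incubated 3.5 h shaking, settled 8-48 h, then scintillation counted; non-specific binding defined with 500 nM GIP.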

[1] = membranes of BHK cells transfected with human glucagon receptor, 125I-glucagon, SPA, read-out: Glu Bd Assay (II) IC50

T1 sequence (P47871 26-477): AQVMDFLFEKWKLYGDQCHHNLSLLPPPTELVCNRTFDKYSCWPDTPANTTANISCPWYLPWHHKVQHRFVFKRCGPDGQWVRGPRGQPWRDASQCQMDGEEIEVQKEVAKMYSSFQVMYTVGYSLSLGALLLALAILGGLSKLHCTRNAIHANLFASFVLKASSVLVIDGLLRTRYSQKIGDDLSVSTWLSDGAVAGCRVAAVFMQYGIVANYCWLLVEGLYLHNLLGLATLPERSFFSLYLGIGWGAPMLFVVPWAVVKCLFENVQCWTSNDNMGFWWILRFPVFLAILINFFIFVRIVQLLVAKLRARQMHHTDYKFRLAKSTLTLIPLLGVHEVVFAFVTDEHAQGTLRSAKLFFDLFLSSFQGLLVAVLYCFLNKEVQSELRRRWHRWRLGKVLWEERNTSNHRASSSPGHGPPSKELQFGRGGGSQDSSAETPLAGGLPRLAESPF

| SMILES | IC50 (human glucagon receptor; [1]) | IC50 (human GIP receptor) | melting point | IC50 (human glucagon receptor) |
| --- | --- | --- | --- | --- |
| CC(C)(C)[C@H]1CC[C@H](N(Cc2ccc(C(=O)NC[C@H](O)C(=O)O)cc2)C(=O)Nc2cc(C(F)(F)F)cc(C(F)(F)F)c2)CC1 [Example 13, (S)-Trans-3-{4-[3-(3,5-Bis(trifluoromethyl)phenyl)-1-(4-tert-butylcyclohexyl)ureidomethyl]benzoylamino}-2-hydroxypropionic acid] | 228 nM | 700 nM | 185 to 187 °C | – |
| CC(C)(C)[C@H]1CC[C@H](N(Cc2ccc(C(=O)NC[C@@H](O)C(=O)O)cc2)C(=O)Nc2cc(C(F)(F)F)cc(C(F)(F)F)c2)CC1 [Example 14, (R)-Trans-3-{4-[3-(3,5-bis(trifluoromethyl)phenyl)-1-(4-tert-butylcyclohexyl)ureidomethyl]benzoylamino}-2-hydroxypropionic acid] | 19 nM | 274 nM | 184 to 187 °C | – |
| CC(C)(C)C1CC=C(c2ccc(N(Cc3ccc(C(=O)NC[C@@H](O)C(=O)O)cc3)C(=O)Nc3cc(Cl)cc(Cl)c3)cc2)CC1 (stereo partly drawn) [Example 33, 3-{4-[1-[4-(4-tert-Butylcyclohex-1-enyl)phenyl]-3-(3,5-dichlorophenyl)ureidomethyl]benzoyl-amino}-2-(R)-hydroxypropionic Acid] | 12 nM | 189 nM | 151 to 155 °C | – |
| O=C(NC[C@@H](O)C(=O)O)c1ccc(CN(C(=O)Cc2cc(F)cc(C(F)(F)F)c2)c2ccc(C3CCCCC3)cc2)cc1 [Example 65, (R)-3-[4-({(4-Cyclohexylphenyl)-[(3-fluoro-5-trifluoromethylphenyl)acetyl]amino}methyl)benzoylamino]-2-hydroxypropionic acid] | 520 nM | > 3000 nM | – | – |
| O=C(NC[C@@H](O)C(=O)O)c1ccc(CN(C(=O)Cc2cc(C(F)(F)F)cc(C(F)(F)F)c2)c2ccc(C3CCCCC3)cc2)cc1 [Example 66, (R)-3-(4-{([(3,5-Bis(trifluoromethyl)phenyl)acetyl]-(4-cyclohexylphenyl)amino)methyl}benzoylamino)-2-hydroxypropionic acid] | 325 nM | > 3000 nM | – | – |

The next lines start with the values.

| IC50 (human glucagon receptor; [1]) | IC50 (human GIP receptor) | melting point | IC50 (human glucagon receptor) | SMILES |
| --- | --- | --- | --- | --- |
| 520 nM | > 3000 nM | – | – | O=C(NC[C@@H](O)C(=O)O)c1ccc(CN(C(=O)Cc2cccc(C(F)(F)F)c2)c2ccc(C3CCCCC3)cc2)cc1 [Example 67, (R)-3-[4-({(4-Cyclohexylphenyl)-[(3-trifluoromethylphenyl)acetyl]amino}methyl)benzoylamino]-2-hydroxypropionic acid] |
| – | > 3000 nM | – | 528 nM | O=C(NC[C@@H](O)C(=O)O)c1ccc(CN(C(=O)Cc2ccc(Cl)c(Cl)c2)c2ccc(C3CCCCC3)cc2)cc1 [Example 68, (R)-3-[4-({(4-Cyclohexylphenyl)-[(3,4-dichlorophenyl)acetyl]amino}methyl)benzoylamino]-2-hydroxypropionic acid] |
| 430 nM | > 3000 nM | – | – | O=C(NC[C@@H](O)C(=O)O)c1ccc(CN(C(=O)Cc2cccc(Br)c2)c2ccc(C3CCCCC3)cc2)cc1 [Example 69, (R)-3-(4-{[[(3-Bromophenyl)acetyl]-(4-cyclohexylphenyl)amino]methyl}benzoylamino)-2-hydroxypropionic acid] |
| 740 nM | > 3000 nM | – | – | O=C(NC[C@@H](O)C(=O)O)c1ccc(CN(C(=O)Cc2ccc(-c3ccccc3)cc2)c2ccc(C3CCCCC3)cc2)cc1 [Example 70, (R)-3-(4-{[(Biphenyl-4-ylacetyl)-(4-cyclohexylphenyl)amino]methyl}benzoylamino)-2-hydroxypropionic acid] |
| 886 nM | > 3000 nM | – | – | O=C(NC[C@@H](O)C(=O)O)c1ccc(CN(C(=O)Cc2ccc3ccccc3c2)c2ccc(C3CCCCC3)cc2)cc1 [Example 71, (R)-3-(4-{[(4-Cyclohexylphenyl)-(2-naphthylacetyl)amino]methyl}benzoylamino)-2-hydroxypropionic acid] |
| 542 nM | > 3000 nM | – | – | O=C(NC[C@@H](O)C(=O)O)c1ccc(CN(C(=O)CCc2cc(C(F)(F)F)cc(C(F)(F)F)c2)c2ccc(C3CCCCC3)cc2)cc1 [Example 72, (R)-3-(4-{[(3-(3,5-Bis(trifluoromethyl)phenyl)propionyl)-(4-cyclohexylphenyl)amino]methyl}benzoylamino)-2-hydroxypropionic acid] |
| 680 nM | > 3000 nM | – | – | O=C(NC[C@@H](O)C(=O)O)c1ccc(CN(C(=O)CCc2cccc([N+](=O)[O-])c2)c2ccc(C3CCCCC3)cc2)cc1 [Example 73, (R)-3-[4-({(4-Cyclohexylphenyl)-[3-(3-nitrophenyl)propionyl]amino}methyl)benzoylamino]-2-hydroxypropionic acid] |
